In brackets after ≈: the same amount, converted by molar mass.

What all share (format): cell-based
The test system of one test is Botrtyis cinerea (Bc). Put plainly: In vitro pathogen growth inhibition assay, Bc. To be noted: 48 h, ≥90% growth inhibition; 48 hours; vs 2% DMSO control; read-out: Compound Concentration (ppm) sufficient for ≥90% inhibition of Bc. The method in brief: (§1)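 Value reported is the compound concentration reaching ≥90% growth inhibition, from OD readings at 24 and 48 h after blank subtraction, confirmed visually. Inoculum was spores diluted in 17% V8 medium, except Rs, using 1.5 mm mycelial plugs in ¼ PDB; actual compound concentration corrected via OD600.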

The subject of test [1] is Collectotrichum graminicola (Cg). The test can be described thus: In vitro pathogen growth inhibition assay, Cg. The conditions noted are these: 48 h, ≥90% growth inhibition; 48 hours; vs 2% DMSO control; read-out: Compound Concentration (ppm) sufficient for ≥90% inhibition of Cg. In outline: as §1
The next test deals with Diplodia maydis (Dm). Put plainly: In vitro pathogen growth inhibition assay, Dm. The conditions noted are these: Stenocarpella maydis, 48 h, ≥90% growth inhibition; 48 hours; vs 2% DMSO control; read-out: Compound Concentration (ppm) sufficient for ≥90% inhibition of Dm. The method in brief: as §1
Test [2] has as its system Fusarium moniliforme (Fm). The test can be described thus: In vitro pathogen growth inhibition assay, Fm. To be noted: Fusarium verticillioides; ≥90% growth inhibition; 48 hours; vs 2% DMSO control; read-out: Compound Concentration (ppm) sufficient for ≥90% inhibition of Fm. In outline: as §1
The subject of test [3] is Fusarium virguliforme (Fv). Put plainly: In vitro pathogen growth inhibition assay, Fv. The conditions noted are these: ≥90% growth inhibition, 48 hours, vs 2% DMSO control, read-out: Compound Concentration (ppm) sufficient for ≥90% inhibition of Fv. In outline: as §1
Test [4] relates to Phytophthora capsici (Pc). The test can be described thus: In vitro pathogen growth inhibition assay, Pc. To be noted: 48 h, ≥90% growth inhibition, 48 hours, vs 2% DMSO control, read-out: Compound Concentration (ppm) sufficient for ≥90% inhibition of Pc. The method in brief: as §1
Another test concerns Rhizoctonia solani (Rs). The test can be described thus: In vitro pathogen growth inhibition assay, Rs (mycelial plugs). The conditions noted are these: Rhizoctonia solani, 48 h, ≥90% growth inhibition; mycelial plugs; 48 hours; vs 2% DMSO control; read-out: Compound Concentration (ppm) sufficient for ≥90% inhibition of Rs. In outline: as §1
In another test the test system is Septoria tritici (St). Put plainly: In vitro pathogen growth inhibition assay, St. To be noted: Zymoseptoria tritici, 48 h, ≥90% growth inhibition; 48 hours; vs 2% DMSO control; read-out: Compound Concentration (ppm) sufficient for ≥90% inhibition of St. The method in brief: as §1

Turning to `COc1ccccc1[C@H](Cn1c(=O)n(C(C)(C)C(=O)NC(C)C)c(=O)c2c(C)c(-n3nccn3)sc21)O[C@H]1CC[C@@H](O)CC1` [Compound I-265], the IC90 with Botrtyis cinerea (Bc) was 0.4 µg/mL (≈ 0.64 µM); in test [1], 2 µg/mL (≈ 3.2 µM); with Diplodia maydis (Dm) it was 2 µg/mL (≈ 3.2 µM); in test [2], 0.08 µg/mL (≈ 0.128 µM); in test [3] it was 0.4 µg/mL (≈ 0.64 µM); in test [4], at least 50 µg/mL. Moreover, the IC90 in the test on Rhizoctonia solani (Rs) was 0.08 µg/mL (≈ 0.128 µM); in the test with Septoria tritici (St), at least 50 µg/mL.

In the case of `COc1ccccc1[C@H](Cn1c(=O)n(C(C)(C)C(=O)NC(C)C)c(=O)c2c(C)c(-n3nccn3)sc21)OCCC(=O)NO` [Compound I-266], the IC90 in the test with Botrtyis cinerea (Bc) was 2 µg/mL (≈ 3.26 µM); in test [1], 10 µg/mL (≈ 16.3 µM); in the test with Diplodia maydis (Dm), 10 µg/mL (≈ 16.3 µM); in test [2], 2 µg/mL (≈ 3.26 µM); in test [3], 2 µg/mL (≈ 3.26 µM); in test [4], at least 50 µg/mL. For the same molecule, the IC90 in the test with Rhizoctonia solani (Rs) was 2 µg/mL (≈ 3.26 µM); with Septoria tritici (St), above 50 µg/mL.

On to `Cc1c(-n2nccn2)sc2c1c(=O)n(C(C)(C)C(=O)NC1CCC1)c(=O)n2C[C@H](OC(C)C)c1cc(F)ccc1OCC#N` [Compound I-267], for which the IC90 in the test on Botrtyis cinerea (Bc) was 0.4 µg/mL (≈ 0.641 µM); in test [1], 2 µg/mL (≈ 3.21 µM); in the test on Diplodia maydis (Dm) it was 2 µg/mL (≈ 3.21 µM); in test [2], 0.08 µg/mL (≈ 0.128 µM); in test [3] it was 0.4 µg/mL (≈ 0.641 µM); in test [4], above 50 µg/mL. For the same molecule, the IC90 in the test on Rhizoctonia solani (Rs) is 0.4 µg/mL (≈ 0.641 µM); in the test on Septoria tritici (St), above 50 µg/mL.

Regarding `Cc1c(-n2nccn2)sc2c1c(=O)n(C(C)(C)C(=O)NC(C)C)c(=O)n2C[C@H](O[C@H]1CC[C@@H](O)CC1)c1cc(F)ccc1OCC#N` [Compound I-268], the IC90 was 2 µg/mL (≈ 3 µM) in the test with Botrtyis cinerea (Bc); 2 µg/mL (≈ 3 µM) in test [1]; at least 2 µg/mL in the test with Diplodia maydis (Dm); 0.08 µg/mL (≈ 0.12 µM) in test [2]; 2 µg/mL (≈ 3 µM) in test [3]; above 50 µg/mL in test [4]. The IC90 in the test with Rhizoctonia solani (Rs) was 0.4 µg/mL (≈ 0.599 µM); in the test on Septoria tritici (St) it was above 50 µg/mL.

Consider `Cc1c(-n2nccn2)sc2c1c(=O)n(C(C)(C)C(=O)NC(C)C)c(=O)n2C[C@H](OCC(C)(C)C#N)c1cc(C#N)ccc1OCC#N` [Compound I-269], for which the IC90 in the test on Botrtyis cinerea (Bc) is 10 µg/mL (≈ 15.2 µM); in test [1], above 50 µg/mL; in the test with Diplodia maydis (Dm), above 50 µg/mL; in test [2], 0.4 µg/mL (≈ 0.608 µM); in test [3], 10 µg/mL (≈ 15.2 µM); in test [4], above 50 µg/mL. Further, the figures for the IC90 in the test on Rhizoctonia solani (Rs) and in the test with Septoria tritici (St) were 2 µg/mL (≈ 3.04 µM) and above 50 µg/mL, respectively.

As for `COc1ccc(Br)cc1[C@H](Cn1c(=O)n(C(C)(C)C(=O)NC(C)C)c(=O)c2c(C)c(-n3nccn3)sc21)OCC(C)(C)C#N` [Compound I-270], the IC90 is 0.4 µg/mL (≈ 0.583 µM) in the test on Botrtyis cinerea (Bc); 2 µg/mL (≈ 2.91 µM) in test [1]; 2 µg/mL (≈ 2.91 µM) with Diplodia maydis (Dm); 0.08 µg/mL (≈ 0.117 µM) in test [2]; 0.4 µg/mL (≈ 0.583 µM) in test [3]; above 50 µg/mL in test [4]. Further, the IC90 in the test with Rhizoctonia solani (Rs) and in the test with Septoria tritici (St) was above 50 µg/mL each time.

With `Cc1c(-n2nccn2)sc2c1c(=O)n(C(C)(C)C(=O)NC(C)C)c(=O)n2C[C@H](OCCO)c1cc(F)ccc1O` [Compound I-271], the IC90 in the test with Botrtyis cinerea (Bc) was 10 µg/mL (≈ 17.4 µM); in test [1], at least 10 µg/mL; in the test with Diplodia maydis (Dm) it was 50 µg/mL (≈ 87 µM); in test [2], 2 µg/mL (≈ 3.48 µM); in test [3], 10 µg/mL (≈ 17.4 µM); in test [4], 50 µg/mL (≈ 87 µM). Besides, the IC90 is 2 µg/mL (≈ 3.48 µM) in the test on Rhizoctonia solani (Rs) and above 50 µg/mL with Septoria tritici (St).

For `COc1ccc(Cl)cc1[C@H](Cn1c(=O)n(C(C)(C)C(=O)NC(C)C)c(=O)c2c(C)c(-n3nccn3)sc21)OCC(C)(C)C#N` [Compound I-272], the IC90 in the test with Botrtyis cinerea (Bc) is 2 µg/mL (≈ 3.11 µM); in test [1], 2 µg/mL (≈ 3.11 µM); in the test with Diplodia maydis (Dm) it was 2 µg/mL (≈ 3.11 µM); in test [2] it was 2 µg/mL (≈ 3.11 µM); in test [3], 2 µg/mL (≈ 3.11 µM); in test [4], above 50 µg/mL. For the same molecule, the IC90 in the test with Rhizoctonia solani (Rs) is 2 µg/mL (≈ 3.11 µM); with Septoria tritici (St), above 50 µg/mL.

The values are drawn from patent publication US10941157B2, “Pesticidal compositions and uses thereof” (Gilead Apollo, LLC, priority 2015, dated 2021).
